Data: US20230028441A1, “NOVEL HETEROARYL-TRIAZOLE COMPOUNDS AS PESTICIDES” (Bayer Aktiengesellschaft, priority 2019, published 2023)

Tests used:
Format in all cases: in vivo
[1] = system: adult engorged female ticks (Rhipicephalus microplus); experiment: Rhipicephalus (Boophilus) microplus injection test; conditions: 168 h, egg deposition after 7 days, read-out: efficacy (infertile eggs); for pest or weed control at 0.004 mg: 4 μg/animal; for pest or weed control at 0.02 mg: 20 μg/animal
Description: (§1) Solvent: dimethyl sulfoxide
To produce a suitable preparation of active compound, 10 mg of active compound are dissolved in 0.5 mL solvent, and the concentrate is diluted with solvent to the desired concentration.
Five adult engorged female ticks (Rhipicephalus microplus) are injected with 1 μL compound solution into the abdomen. The ticks are transferred into replica plates and incubated in a climate chamber.
After 7 days egg deposition of fertile eggs is monitored. Eggs where fertility is not visible are stored in a climate chamber till hatching after about 42 days. An efficacy of 100% means all eggs are infertile; 0% means all eggs are fertile.

[2] = system: larvae of the banded cucumber beetle (Diabrotica balteata); experiment: Diabrotica balteata spray test; conditions: 168 h, 100 g/ha (=32 μg/well), after 7 days, wheat seeds, read-out: efficacy (seedlings grown up)
Description: (§2) Solvent: 78.0 parts by weight of acetone • • 1.5 parts by weight of dimethylformamide
(§3) Emulsifier: alkylarylpolyglycol ether
(§4) To produce a suitable preparation of active compound, 1 part by weight of active compound is mixed with the stated amount of solvent, and the concentrate is diluted with water, containing an emulsifier concentration of 1000 ppm, to the desired concentration. Further test concentrations are prepared by dilution with emulsifier containing water.
Soaked wheat seeds (Triticum aestivum) are placed in a multiple well plate filled with agar and some water and are incubated for 1 day to germinate (5 seeds per well). The germinated wheat seeds are sprayed with a test solution containing the desired concentration of the active ingredient. Afterwards each unit is infected with 10-20 larvae of the banded cucumber beetle (Diabrotica balteata).
After 7 days efficacy in % is determined. 100% means all the seedlings have grown up like in the untreated, uninfected control; 0% means none of the seedlings have grown.

[3] = system: adult unfed cat fleas (Ctenocephalides felis); experiment: Ctenocephalides felis oral test; conditions: 48 h, 100 ppm in cattle blood, after 2 days
Description: as §1
To produce a suitable preparation of active compound, 10 mg of active compound are dissolved in 0.5 mL solvent, and the concentrate is diluted with cattle blood to the desired concentration.
Approximately 20 adult unfed cat fleas (Ctenocephalides felis) are placed in flea chambers. The blood chamber, sealed with parafilm on the bottom, are filled with cattle blood supplied with compound solution and placed on the gauze covered top of the flea chamber, so that the fleas are able to suck the blood. The blood chamber is heated to 37° C. whereas the flea chamber is kept at room temperature.
After 2 days mortality in % is determined. 100% means all the fleas have been killed; 0% means none of the fleas have been killed.

[4] = system: cattle tick larvae (Rhipicephalus microplus), strain Parkhurst, resistant against synthetic pyrethroids; experiment: Rhipicephalus (Boophilus) microplus in-vitro contact test, larval cattle tick; conditions: 5 μg/cm^2 (=500 g/ha), after 48 hours, read-out: efficacy (larvae dead or moribund)
Description: (§5) 9 mg compound is solved in 1 mL acetone and diluted with acetone to the desired concentration. 250 μL of the test solution is filled in 25 mL glass test tubes and homogeneously distributed on the inner walls by rotation and tilting on a shaking device (2 h at 30 rpm). With a compound concentration of 900 ppm, an inner surface of 44.7 cm^2 and a homogeneous distribution, a dose of 5 μg/cm^2 is achieved.
After the solvent has evaporated, each test tube is filled with 20-50 cattle tick larvae (Rhipicephalus microplus), closed with a perforated lid and incubated in a horizontal position at 85% relative humidity and 27° C. in an incubator. After 48 hours efficacy is determined. The larvae are patted on the ground of the tubes and negative geotactic behaviour is recorded.
An efficacy of 100% means all larvae are dead or moribund; 0% means no larvae are dead or moribund.

[5] = system: fall armyworm larvae (Spodoptera frugiperda); experiment: Spodoptera frugiperda spray test (maize leaf sections); conditions: 168 h
Description: Solvent: 78.0 parts by weight acetone • 1.5 parts by weight dimethylformamide
as §3
as §4, with “solvents” for “solvent,”, “and” for “and the concentrate”
Maize (Zea mays) leaf sections are sprayed with a preparation of the active ingredient of the desired concentration. Once dry, the leaf sections are infested with fall armyworm larvae (Spodoptera frugiperda).
After 7 days mortality in % is determined. 100% means all caterpillars have been killed and 0% means none of the caterpillars have been killed.

[6] = system: larvae of the southern green stink bug (Nezara viridula); experiment: Nezara viridula spray test; conditions: in Hordeum vulgare, 96 h
Description: as §2, §3, §4
Barley plants (Hordeum vulgare) infested with larvae of the southern green stink bug (Nezara viridula) are sprayed with a test solution containing the desired concentration of the active ingredient.
After 4 days mortality in % is determined. 100% means all the stink bugs have been killed; 0% means none of the stink bugs have been killed.

[7] = system: adult brown dog ticks (Rhipicephalus sanguineus); experiment: Rhipicephalus sanguineus in-vitro contact test with adult brown dog ticks; conditions: after 48 hours, read-out: efficacy (ticks dead or moribund); for pest or weed control at 5 µg/cm2, 500 g/ha: 5 μg/cm^2 (=500 g/ha)
Description: as §5
After the solvent has evaporated, each test tube is filled with 5-10 adult brown dog ticks (Rhipicephalus sanguineus), closed with a perforated lid and incubated in a lying position at room temperature and relative humidity. After 48 hours efficacy is determined. The ticks are patted on the ground of the tubes and are incubated on a heating plate at 45-50° C. for at most 5 minutes. Immotile or uncoordinated moving ticks, which are not able to escape the heat by climbing upwards, are marked as dead or moribund.
An efficacy of 100% means all ticks are dead or moribund; 0% means no ticks are dead or moribund.

`CC(NC(=O)c1cc(C(F)(F)F)cc(C(F)(F)F)c1)c1nc(Cc2ccccc2)nn1-c1ncccn1` (racemic) [I-082, N-[1-(5-benzyl-2-pyrimidin-2-yl-1,2,4-triazol-3-yl)ethyl]-3,5-bis(trifluoromethyl)benzamide] showed a pest or weed control at 0.004 mg [1] of 100%, a pest or weed control at 32 µg/disc, 100 g/ha [2] of 80% and a mortality at 100 ppm [3] of 100%.
With `CC(NC(=O)c1cc(Cl)cc(C(F)(F)F)c1)c1nc(NC(=O)C2(Cl)CC2)nn1-c1ccc(Cl)cn1` (stereo not shown) [I-014] the pest or weed control at 0.004 mg [1] was 100%, the pest or weed control at 0.02 mg [1] was 100% and the pest or weed control at 5 µg/cm2 [4] was 100%. For the same molecule, the mortality at 100 g/ha [5] was 100%, the mortality at 500 g/ha [5] was 100% and the mortality at 100 ppm [3] was 100%.
With `CC(NC(=O)c1cc(Cl)cc(S(C)(=O)=O)c1)c1nc(NC(=O)C2CC2(F)F)nn1-c1ncccn1` (stereo not shown) [I-021] the pest or weed control at 0.004 mg [1] was 80%, the mortality at 100 g/ha [6] was 90% and the mortality at 100 ppm [3] was 100%.
`CC(NC(=O)c1cc(Cl)cc(C(F)(F)F)c1)c1nc(-c2ccc(Cl)nc2)nn1-c1ccc(Cl)cn1` (stereo not shown) [I-032] showed a pest or weed control at 5 µg/cm2, 500 g/ha [7] of 80%.
In the case of `CC(NC(=O)c1cc(Cl)nc(Cl)c1)c1nc(-c2cnccn2)nn1-c1ccc(Cl)cn1` (stereo not shown) [I-035], the pest or weed control at 0.02 mg [1] is reported as 100%, the pest or weed control at 5 µg/cm2 [4] is reported as 100% and the mortality at 100 ppm [3] is reported as 100%.
With `CC(NC(=O)c1cc(Br)cc(C(F)(F)F)c1)c1nc(-c2cnccn2)nn1-c1ccc(Cl)cn1` (stereo not shown) [I-036] the pest or weed control at 0.02 mg [1] was 100%, the pest or weed control at 5 µg/cm2 [4] was 100% and the mortality at 100 g/ha [5] was 100%. For the same molecule, the mortality at 500 g/ha [5] was 100% and the mortality at 100 ppm [3] was 100%.
`CC(NC(=O)c1cc(Cl)cc(C(F)(F)F)c1)c1nc(-c2cnccn2)nn1-c1ccc(Cl)cn1` (stereo not shown) [I-040] gave a pest or weed control at 0.004 mg [1] of 100%, a pest or weed control at 0.02 mg [1] of 100% and a pest or weed control at 5 µg/cm2 [4] of 100%. The mortality at 100 ppm [3] was 100%.
In the case of `CC(NC(=O)c1cc(Cl)cc(Cl)c1)c1nc(-c2cnccn2)nn1-c1ncccn1` (stereo not shown) [I-046], the pest or weed control at 0.004 mg [1] is reported as 100%, the pest or weed control at 0.02 mg [1] is reported as 100% and the mortality at 500 g/ha [5] is reported as 100%. It also gave a mortality at 100 ppm [3] of 100%.
With `CC(NC(=O)c1cc(Cl)cc(C(F)(F)F)c1)c1nc(-c2cnccn2)nn1-c1ncccn1` (stereo not shown) [I-047] the pest or weed control at 0.004 mg [1] was 100%, the pest or weed control at 0.02 mg [1] was 100% and the mortality at 500 g/ha [5] was 83%. The mortality at 100 ppm [3] was 100%.
Molecule `CC(NC(=O)c1cc(Br)cc(C(F)(F)F)c1)c1nc(-c2cnccn2)nn1-c1ncccn1` (stereo not shown) [I-048] has a pest or weed control at 0.004 mg [1] of 100%, a mortality at 500 g/ha [5] of 83% and a mortality at 100 ppm [3] of 100%.
`CC(NC(=O)c1cc(Cl)cc(C(F)(F)F)c1)c1nc(C#N)nn1-c1ccc(C#N)cn1` (stereo not shown) [I-081] gave a pest or weed control at 0.004 mg [1] of 100%, a pest or weed control at 32 µg/disc, 100 g/ha [2] of 100% and a pest or weed control at 5 µg/cm2 [4] of 100%. The mortality at 100 ppm [3] was 90%.
For `CNc1nc([C@H](C)NC(=O)c2cc(C(F)(F)F)cc(C(F)(F)F)c2)n(-c2ncc(C(=O)N3CCOCC3)s2)n1` [I-126, N-[(1S)-1-[5-(methylamino)-2-[5-(morpholine-4-carbonyl)thiazol-2-yl]-1,2,4-triazol-3-yl]ethyl]-3,5-bis(trifluoromethyl)benzamide], the pest or weed control at 5 µg/cm2, 500 g/ha [7] was 80%, the mortality at 500 g/ha [6] was 100% and the pest or weed control at 32 µg/disc, 100 g/ha [2] was 100%. For the same molecule, the mortality at 100 g/ha [5] was 100%.
Molecule `CC(NC(=O)c1cc(Cl)cc(C(C)(C)C#N)c1)c1nc(N2CCOCC2)nn1-c1ccc(C#N)cn1` (stereo not shown) [I-159] has a pest or weed control at 1 µg/cm2, 100 g/ha ([7]; 1 μg/cm^2 (=100 g/ha)) of 100%, a mortality at 500 g/ha [6] of 90% and a pest or weed control at 32 µg/disc, 100 g/ha [2] of 100%. It also gave a pest or weed control at 5 µg/cm2 [4] of 100% and a mortality at 100 g/ha [5] of 100%.
